Measured values published in paper PMC9084241, “The structure and configuration changes of multifunctional peptide vectors enhance gene delivery efficiency” (RSC Advances, 2018).
Where a SMILES comes first, the peptide text is derived from it. [ ]: non-standard residue; d: D form. The star is where a group is joined. Stearoyl = CCCCCCCCCCCCCCCCCC(=O)*

Experiment: Enzymatic hydrolysis stability
Format: in vitro ADME
Conditions: Tritirachium album (Parengyodontium album), peptide 8.0 mg/mL and proteinase K 2.0 mg/mL in PBS mixed 0.5 mL + 0.5 mL, 37 °C, HPLC peak area, mean n = 3
Procedure: Peptides and proteinase K were dissolved in PBS and then diluted to 8.0 mg mL^−1 and 2.0 mg mL^−1, respectively. For each peptide tested, 0.5 mL of peptide solution was mixed with 0.5 mL proteinase K solution and then incubated in a water bath at 37 °C. After 0, 5, 15, 30, 60, and 120 min, a 10 µL sample of the mixture was withdrawn and 30 µL of a precipitator solution (1.0 mL of TFA in 9.0 mL acetonitrile) was added. Each sample was subsequently vortexed for 5 s and centrifuged for 10 min at 4 °C. Supernatants were analyzed by HPLC, with the peak area of each peptide recorded and used to calculate hydrolysis efficiency.

SMILES	metabolised at 1 h, 4 mg/mL (within 60 min, read-out: peptide degraded by proteinase K)	remaining at 1 h, 4 mg/mL (60 min, read-out: peptide remaining after incubation with proteinase K)
CCCCCCCCCCCCCCCCCC(=O)N[C@@H](CS)C(=O)N[C@@H](CC(C)C)C(=O)N[C@@H](CC(C)C)C(=O)N[C@@H](CCCCN)C(=O)N[C@@H](CCCCN)C(=O)N[C@@H](CC(C)C)C(=O)N[C@@H](CC(C)C)C(=O)N[C@@H](CCCCN)C(=O)N[C@@H](CCCCN)C(=O)N[C@@H](CC(C)C)C(=O)N[C@@H](CC(C)C)C(=O)N[C@@H](CCCCN)C(=O)N[C@@H](CCCCN)C(=O)N[C@@H](CS)C(=O)N[C@@H](Cc1c[nH]cn1)C(=O)N[C@@H](Cc1c[nH]cn1)C(=O)N[C@@H](Cc1c[nH]cn1)C(=O)N[C@@H](Cc1c[nH]cn1)C(=O)N[C@@H](Cc1c[nH]cn1)C(=O)N[C@@H](Cc1c[nH]cn1)C(=O)N[C@@H](CCCNC(=N)N)C(=O)N[C@@H](CCCNC(=N)N)C(=O)N[C@@H](CCCNC(=N)N)C(=O)N[C@@H](CCCNC(=N)N)C(=O)N[C@@H](CCCNC(=N)N)C(=O)N[C@@H](CCCNC(=N)N)C(=O)N[C@@H](CCCNC(=N)N)C(=O)N[C@@H](CCCNC(=N)N)C(=O)N[C@@H](CCCNC(=N)N)C(N)=O [P-03] (Stearoyl-CLLKKLLKKLLKKCHHHHHHRRRRRRRRR-NH2)	82%	
CCCCCCCCCCCCCCCCCC(=O)N[C@H](CS)C(=O)N[C@H](CC(C)C)C(=O)N[C@H](CC(C)C)C(=O)N[C@H](CCCCN)C(=O)N[C@H](CCCCN)C(=O)N[C@H](CC(C)C)C(=O)N[C@H](CC(C)C)C(=O)N[C@H](CCCCN)C(=O)N[C@H](CCCCN)C(=O)N[C@H](CC(C)C)C(=O)N[C@H](CC(C)C)C(=O)N[C@H](CCCCN)C(=O)N[C@H](CCCCN)C(=O)N[C@H](CS)C(=O)N[C@H](Cc1c[nH]cn1)C(=O)N[C@H](Cc1c[nH]cn1)C(=O)N[C@H](Cc1c[nH]cn1)C(=O)N[C@H](Cc1c[nH]cn1)C(=O)N[C@H](Cc1c[nH]cn1)C(=O)N[C@H](Cc1c[nH]cn1)C(=O)N[C@H](CCCNC(=N)N)C(=O)N[C@H](CCCNC(=N)N)C(=O)N[C@H](CCCNC(=N)N)C(=O)N[C@H](CCCNC(=N)N)C(=O)N[C@H](CCCNC(=N)N)C(=O)N[C@H](CCCNC(=N)N)C(=O)N[C@H](CCCNC(=N)N)C(=O)N[C@H](CCCNC(=N)N)C(=O)N[C@H](CCCNC(=N)N)C(N)=O [P-04] (Stearoyl-[dC][dL][dL][dK][dK][dL][dL][dK][dK][dL][dL][dK][dK][dC][dH][dH][dH][dH][dH][dH][dR][dR][dR][dR][dR][dR][dR][dR][dR]-NH2)		70%
